Measurements published in patent US12605366B2, “Telmisartan for the treatment of hypertension in dogs” (BOEHRINGER INGELHEIM VETMEDICA GMBH, priority 2019, dated 2026).

Columns and labels:
[1] = system: dogs with hypertension; assay: Prospective, block-randomized, double-blind clinical trial: systolic blood pressure (SBP) in client-owned dogs with proteinuric CKD; format: in vivo, dog; settings: for Average of SBP day 0: baseline; for Average of SBP day 0 / Average of SBP % change day 30 / Average of SBP change day 30 / Average of SBP % change day 60 / Average of SBP change day 60 / Average of SBP % change day 90 / Average of SBP change day 90 / Average of SBP day 30 / Average of SBP day 60 / Average of SBP day 90: dogs hypertensive at day 0, no amlodipine; for Average of SBP % change day 30 / Average of SBP change day 30 / Average of SBP % change day 60 / Average of SBP change day 60 / Average of SBP % change day 90 / Average of SBP change day 90 / Average of SBP % change day 120 / Average of SBP change day 120: change from baseline; for Average of SBP % change day 120 / Average of SBP change day 120: the other drug (telmisartan or enalapril) added after SBP measurement on day 90; for course of average SBP during the period of treatment: up to day 90
Text: A prospective, block-randomized, double-blind clinical trial has been carried out. Fifty-four client-owned dogs with persistent pathologic renal proteinuria have been recruited over a 2-year period.
Azotemic and non-azotemic dogs (N=54) with hypertensive and non-hypertensive CKD have been recruited prospectively from patients presented to the hospital. Dogs included as cases will have confirmed persistent pathologic renal proteinuria due to CKD; in order to be classified as such, fulfillment of the criteria described below will be required.
Abdominal ultrasound findings consistent with CKD (bilaterally small, irregular kidneys) and absence of renal neoplasia have also been documented.
Dogs with suspected or confirmed hyper-adrenocorticism and diabetes mellitus have been included if their disease is considered well controlled with medical therapy.
Once included in the study and based on the presence/degree of azotemia, dogs have been grouped according to the International Renal Interest Society (IRIS) classification scheme for CKD. Those classified as IRIS stages 2-4 (serum creatinine ≥1.4 mg/dL with inappropriately dilute urine [USG<1.030]) have been considered azotemic (AZ), and those classified as IRIS stage 1 (creatinine <1.4 mg/dL) have been considered non-azotemic (non-AZ). Within each of these two groups, dogs will then be stratified according to IRIS recommendations for arterial pressure (AP) substaging. According to this scheme, dogs with persistent average indirect arterial systolic BP<150 mm Hg will be classified as AP0 (minimal risk for target organ damage). Those with persistent average indirect arterial systolic BP≥150 mm Hg have been classified as AP1-3 (at risk for target organ damage). Four groups will thus be identified: • 1. AZ (IRIS Stages 2-4), IRIS substage AP1-3 3. non-AZ (IRIS Stage 1), IRIS substage AP1-3 • 2. AZ (IRIS Stages 2-4), IRIS substage AP0 4. non-AZ (IRIS Stage 1), IRIS substage AP0
Once placed into one of these four groups, each patient has then been assigned, based on a randomized blocking scheme, to receive either enalapril (n=27) or telmisartan (n=27), as described below, with the aim of grouping being to ensure that equal numbers of each are included into the two treatment groups.
On inclusion (day 0), all owners have been required to read/sign a form consenting to their pets' participation in the study. The following baseline data have been collected for each case: full physical examination (performed by one of the study investigators), fundic examination, blood pressure measurement, serum chemistry panel, urinalysis, abdominal ultrasound, UPC and urine culture. The results of screening tests, if performed within 2 weeks of inclusion in the study, may be used as baseline information. Baseline UPC has been defined as the average of two measurements, taken 2 weeks apart, prior to enrollment.
On day 0, each dog has been randomized to receive telmisartan at 1 mg/kg PO q 24 h (TEL group, n=27) or enalapril at 0.5 mg/kg PO q 12 h (ENAL group, n=27) in a double-blind manner. Randomization and dispensation of telmisartan or enalapril has been carried out at the appropriate doses. Owners have been provided with appropriate contact numbers in the event of an emergency. Enalapril is readily available and telmisartan has been provided by Boehringer Ingelheim Vetmedica Inc., St. Joseph, MO in form of the an aqueous solution, which is commercially available as Semintra®.
For dogs that are classified as AP3 (SBP≥180 mmHg; ≥200 mmHg in sighthounds), a calcium channel blocker (CCB; amlodipine, 0.1 mg/kg PO q 24 hours) has been administered contemporaneously. Co-administration of RAAS-inhibitors and CCB is common in human patients, recommended by a panel of veterinary experts and shown to be efficacious in a laboratory model of proteinuria. All dogs have been started or maintained on a commercially available diet formulated to be low in phosphorus and protein, for at least 1 month prior to enrollment. […]

[2] = system: dogs; settings: cited from earlier work

Structure (SMILES) | Average of SBP day 0 [1] [mmHg] | Average of SBP % change day 30 ([1]; day 30) | Average of SBP change day 30 ([1]; day 30) | Average of SBP % change day 60 [1] | Average of SBP change day 60 [1] | Average of SBP % change day 90 [1] | Average of SBP change day 90 [1] | Average of SBP % change day 120 ([1]; no amlodipine) | Average of SBP change day 120 ([1]; no amlodipine) | Average of SBP day 30 ([1]; day 30) [mmHg] | Average of SBP day 60 [1] [mmHg] | Average of SBP day 90 [1] [mmHg] | course of average SBP during the period of treatment ([1]; no amlodipine) | further results
CCOC(=O)[C@H](CCc1ccccc1)N[C@@H](C)C(=O)N1CCC[C@H]1C(=O)O [Enalapril] | 163.17 | +12.90% | +20.00 mmHg | +0.65% | +1.00 mmHg | +1.94% | +3.00 mmHg | −20.65^1% | −32.00^1 mmHg | 153.80 | 153.00 | 158.00 | increased again on days 60 and 90 | Average of SBP day 0 ([1]; listed as enalapril): 163 mmHg; SBP increased ([1]; day 30, FIG. 2): more than 10%; Average of SBP day 30 ([1]; day 30, listed as enalapril): 153 mmHg
CCCc1nc2c(C)cc(-c3nc4ccccc4n3C)cc2n1Cc1ccc(-c2ccccc2C(=O)O)cc1 [Telmisartan] | 163.57 | −18.88% | −31.50 mmHg | −18.42% | −31.00 mmHg | −22.58% | −37.00 mmHg | −42.70^2% | −76.00^2 mmHg | 140.86 | 138.60 | 132.33 | constantly lowered | Average of SBP day 0 ([1]; listed as telmisartan): 163 mmHg; absolute average SBP compared to enalapril treated dogs ([1]; day 0 to day 90, no amlodipine, FIG. 4): much lower; average change of SBP, reduction compared to enalapril-treated dogs ([1]; day 30): at least 30 mmHg; reduction in SBP ([1]; day 30, FIG. 2): ~20%; average SBP change from baseline compared to enalapril ([1]; day 30, day 60 and day 90, dogs with SBP of at least 150 mmHg at day 0 which received amlodipine, FIG. 3): greater; average change (reduction) in SBP compared to enalapril treated dogs ([1]; day 30 to day 90, no amlodipine, FIGS. 1 and 2): greater; Average of SBP day 90 ([1]; listed as telmisartan): 132 mmHg; effect on blood pressure ([2]; 1 mg/kg daily dose): have an effect on blood pressure; vascular and renal excretory effects ([2]; daily oral dose): produces vasodilation, diuresis and natriuresis without influencing potassium or creatinine excretion
